The record followed here is patent publication US20090105217A1, “2-PHENYL-5-AMINO-1,3,4-OXADIAZOLES AND THEIR USE AS NICOTINIC ACETYLCHOLINE RECEPTOR LIGANDS” (priority 2007, published 2009).

The assay deals with T1, human α7 nAChR (Homo sapiens, UniProt P36544).
T1 construct: host or cells: GH4C1 cells (pituitary tumor, immortalized cell line)
T1 sequence (P36544 23-502): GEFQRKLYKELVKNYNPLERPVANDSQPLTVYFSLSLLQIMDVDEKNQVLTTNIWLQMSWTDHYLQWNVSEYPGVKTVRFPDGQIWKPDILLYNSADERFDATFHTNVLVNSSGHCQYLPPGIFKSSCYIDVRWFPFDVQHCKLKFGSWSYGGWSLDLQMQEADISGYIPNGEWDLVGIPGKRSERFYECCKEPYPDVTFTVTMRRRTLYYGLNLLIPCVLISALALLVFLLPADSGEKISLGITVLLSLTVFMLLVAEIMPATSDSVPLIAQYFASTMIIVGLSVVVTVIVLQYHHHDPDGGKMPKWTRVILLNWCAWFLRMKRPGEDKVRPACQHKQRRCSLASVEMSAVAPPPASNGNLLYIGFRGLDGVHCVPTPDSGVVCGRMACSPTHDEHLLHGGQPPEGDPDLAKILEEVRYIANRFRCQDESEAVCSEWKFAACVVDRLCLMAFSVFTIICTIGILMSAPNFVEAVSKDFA
Put plainly: α7 nAChR FLIPR (Fluorometric Imaging Plate Reader) Ca2+ assay, agonist EC50. It is filed as cell-based. Particulars: GH4C1 cells stably transfected with human α7 nAChR; Fluo-4 Ca2+ fluorescence; Examples 194 to 205 tested as the HCl salt; read-out: pEC50 value (negative logarithm of the agonist EC50) (converted). In short, it runs like this: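 GH4C1 cells stably expressing human α7 nAChR, loaded with 2 μM Fluo-4 for 45–60 min at 37 °C in HEPES buffer pH 7.3 with 2 mM CaCl2 and 2.5 mM probenecid. Peak calcium fluorescence (ex 488, em 510–580 nm) after compound addition fitted for agonist EC50, reported as pEC50.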
By EC50 is commonly meant the concentration needed to bring the measured effect to its halfway point. As for `COc1cc(NC(=O)c2ccccc2)ccc1-c1nnc(NCCCN2CCN3CCC2CC3)o1` [Example 122, N-[4-(5-{[3-(1,4-diazabicyclo[3.2.2]non-4-yl)propyl]amino}-1,3,4-oxadiazol-2-yl)-3-(methyloxy)phenyl]benzamide], the EC50 was at most 0.1 µM. Next, `O=C(Nc1ccc(-c2nnc(NCCCN3CCN4CCC3CC4)o2)cc1)c1ccccc1` [Example 123, N-[4-(5-{[3-(1,4-diazabicyclo[3.2.2]non-4-yl)propyl]amino}-1,3,4-oxadiazol-2-yl)phenyl]benzamide]: at most 0.1 µM; `O=C(Nc1ccc(-c2nnc(NCCCN3CCN4CCC3CC4)o2)c(F)c1)c1ccccc1` [Example 124, N-[4-(5-{[3-(1,4-diazabicyclo[3.2.2]non-4-yl)propyl]amino}-1,3,4-oxadiazol-2-yl)-3-fluorophenyl]benzamide]: at most 0.1 µM. Next, `O=C(Nc1ccc(-c2nnc(NCCCN3CCN4CCC3CC4)o2)c(Cl)c1)c1ccccc1F` [Example 125, N-[3-chloro-4-(5-{[3-(1,4-diazabicyclo[3.2.2]non-4-yl)propyl]amino}-1,3,4-oxadiazol-2-yl)phenyl]-2-fluorobenzamide]: at most 0.1 µM; `COc1cc(NC(=O)c2ccccc2F)ccc1-c1nnc(NCCCN2CCCC2)o1` [Example 126, 2-fluoro-N-[3-(methyloxy)-4-(5-{[3-(1-pyrrolidinyl)propyl]amino}-1,3,4-oxadiazol-2-yl)phenyl]benzamide]: at most 1 µM. Next, `COc1cc(NC(=O)c2ccccc2F)ccc1-c1nnc(NCCCCN2CCCC2)o1` [Example 127, 2-fluoro-N-[3-(methyloxy)-4-(5-{[4-(1-pyrrolidinyl)butyl]amino}-1,3,4-oxadiazol-2-yl)phenyl]benzamide]: at most 0.1 µM; `CC1(C)CCN(CCCNc2nnc(-c3ccc(NC(=O)c4ccccc4F)cc3)o2)CC1` [Example 135, N-[4-(5-{[3-(4,4-dimethyl-1-piperidinyl)propyl]amino}-1,3,4-oxadiazol-2-yl)phenyl]-2-fluorobenzamide]: at most 1 µM; `CCC(C)N(C)CCCNc1nnc(-c2ccc(NC(=O)c3ccccc3F)cc2)o1` (stereo not shown) [Example 136, 2-fluoro-N-{4-[5-({3-[methyl(1-methylpropyl)amino]propyl}amino)-1,3,4-oxadiazol-2-yl]phenyl}benzamide]: at most 1 µM. With `CN(CCCNc1nnc(-c2ccc(NC(=O)c3ccccc3F)cc2)o1)C1CCCC1` [Example 137, N-{4-[5-({3-[cyclopentyl(methyl)amino]propyl}amino)-1,3,4-oxadiazol-2-yl]phenyl}-2-fluorobenzamide], the EC50 was at most 1 µM. Next, `COc1cc(NC(=O)c2ccccc2F)ccc1-c1nnc(NCCCCN2CCC(F)CC2)o1` [Example 145, 2-fluoro-N-[4-(5-{[4-(4-fluoro-1-piperidinyl)butyl]amino}-1,3,4-oxadiazol-2-yl)-3-(methyloxy)phenyl]benzamide]: at most 0.1 µM; `O=C(Nc1ccc(-c2nnc(NCCCN3CCCC3)o2)cc1)C1CCCCC1` [Example 146, N-[4-(5-{[3-(1-pyrrolidinyl)propyl]amino}-1,3,4-oxadiazol-2-yl)phenyl]cyclohexanecarboxamide]: at most 1 µM; `O=C(Nc1ccc(-c2nnc(NCCCCN3CCCC3)o2)cc1)C1CCCCC1` [Example 147, N-[4-(5-{[4-(1-pyrrolidinyl)butyl]amino}-1,3,4-oxadiazol-2-yl)phenyl]cyclohexanecarboxamide]: at most 0.1 µM.

With `O=C(Nc1ccc(-c2nnc(NCCCCN3CCOCC3)o2)cc1)C1CCCCC1` [Example 148, N-[4-(5-{[4-(4-morpholinyl)butyl]amino}-1,3,4-oxadiazol-2-yl)phenyl]cyclohexanecarboxamide], the EC50 was at most 1 µM. As for `CCN(CC)CCCNc1nnc(-c2ccc(NC(=O)C3CCCCC3)cc2)o1` [Example 149, N-[4-(5-{[3-(diethylamino)propyl]amino}-1,3,4-oxadiazol-2-yl)phenyl]cyclohexanecarboxamide], the figure is at most 1 µM; as for `CCN(CC)CCCCNc1nnc(-c2ccc(NC(=O)C3CCCCC3)cc2)o1` [Example 150, N-[4-(5-{[4-(diethylamino)butyl]amino}-1,3,4-oxadiazol-2-yl)phenyl]cyclohexanecarboxamide], at most 1 µM; as for `O=C(Nc1ccc(-c2nnc(NCCCCN3CCCC3)o2)c(Cl)c1)c1ccccc1F` [Example 153, N-[3-chloro-4-(5-{[4-(1-pyrrolidinyl)butyl]amino}-1,3,4-oxadiazol-2-yl)phenyl]-2-fluorobenzamide], at most 0.1 µM. Next, `O=C(Nc1ccc(-c2nnc(NCCCCN3CCOCC3)o2)c(Cl)c1)c1ccccc1F` [Example 154, N-[3-chloro-4-(5-{[4-(4-morpholinyl)butyl]amino}-1,3,4-oxadiazol-2-yl)phenyl]-2-fluorobenzamide]: at most 0.1 µM; `CCN(CC)CCCNc1nnc(-c2ccc(NC(=O)c3ccccc3F)cc2Cl)o1` [Example 155, N-[3-chloro-4-(5-{[3-(diethylamino)propyl]amino}-1,3,4-oxadiazol-2-yl)phenyl]-2-fluorobenzamide]: at most 1 µM. As for `CCN(CC)CCCCNc1nnc(-c2ccc(NC(=O)c3ccccc3F)cc2Cl)o1` [Example 156, N-[3-chloro-4-(5-{[4-(diethylamino)butyl]amino}-1,3,4-oxadiazol-2-yl)phenyl]-2-fluorobenzamide], the figure is at most 0.1 µM; as for `O=C(Nc1ccc(-c2nnc(NCCCN3CCCC3)o2)c(Cl)c1)C1CCCCC1` [Example 157, N-[3-chloro-4-(5-{[3-(1-pyrrolidinyl)propyl]amino}-1,3,4-oxadiazol-2-yl)phenyl]cyclohexanecarboxamide], at most 1 µM.

For the molecule `O=C(Nc1ccc(-c2nnc(NCCCCN3CCCC3)o2)c(Cl)c1)C1CCCCC1` [Example 158, N-[3-chloro-4-(5-{[4-(1-pyrrolidinyl)butyl]amino}-1,3,4-oxadiazol-2-yl)phenyl]cyclohexanecarboxamide], the EC50 is at most 0.1 µM. Next, `CCN(CC)CCCNc1nnc(-c2ccc(NC(=O)C3CCCCC3)cc2Cl)o1` [Example 159, N-[3-chloro-4-(5-{[3-(diethylamino)propyl]amino}-1,3,4-oxadiazol-2-yl)phenyl]cyclohexanecarboxamide]: at most 1 µM; `CCN(CC)CCCCNc1nnc(-c2ccc(NC(=O)C3CCCCC3)cc2Cl)o1` [Example 160, N-[3-chloro-4-(5-{[4-(diethylamino)butyl]amino}-1,3,4-oxadiazol-2-yl)phenyl]cyclohexanecarboxamide]: at most 1 µM; `O=C(Nc1ccc(-c2nnc(NCCCCN3CCOCC3)o2)c(Cl)c1)C1CCCCC1` [Example 161, N-[3-chloro-4-(5-{[4-(4-morpholinyl)butyl]amino}-1,3,4-oxadiazol-2-yl)phenyl]cyclohexanecarboxamide]: at most 1 µM.

For the molecule `O=C(Nc1ccc(-c2nnc(NCCCN3CCCCC3)o2)c(Cl)c1)C1CCCCC1` [Example 163, N-[3-chloro-4-(5-{[3-(1-piperidinyl)propyl]amino}-1,3,4-oxadiazol-2-yl)phenyl]cyclohexanecarboxamide], the EC50 was at most 1 µM. Next, `O=C(Nc1ccc(-c2nnc(NCCCCN3CCCCC3)o2)c(Cl)c1)C1CCCCC1` [Example 164, N-[3-chloro-4-(5-{[4-(1-piperidinyl)butyl]amino}-1,3,4-oxadiazol-2-yl)phenyl]cyclohexanecarboxamide]: at most 0.1 µM; `O=C(Nc1ccc(-c2nnc(NCCCN3CCCC3)o2)c(Cl)c1)c1ccccc1F` [Example 165, N-[3-chloro-4-(5-{[3-(1-pyrrolidinyl)propyl]amino}-1,3,4-oxadiazol-2-yl)phenyl]-2-fluorobenzamide]: at most 1 µM. As for `CCc1cc(NC(=O)c2ccccc2F)ccc1-c1nnc(NCCCN2CCOCC2)o1` [Example 167, N-[3-ethyl-4-(5-{[3-(4-morpholinyl)propyl]amino}-1,3,4-oxadiazol-2-yl)phenyl]-2-fluorobenzamide], the figure is at most 1 µM; as for `CCc1cc(NC(=O)c2ccccc2F)ccc1-c1nnc(NCCCCN2CCCCC2)o1` [Example 168, N-[3-ethyl-4-(5-{[4-(1-piperidinyl)butyl]amino}-1,3,4-oxadiazol-2-yl)phenyl]-2-fluorobenzamide], at most 1 µM; as for `CCc1cc(NC(=O)c2ccccc2F)ccc1-c1nnc(NCCCN2CCN3CCC2CC3)o1` [Example 169, N-[4-(5-{[3-(1,4-diazabicyclo[3.2.2]non-4-yl)propyl]amino}-1,3,4-oxadiazol-2-yl)-3-ethylphenyl]-2-fluorobenzamide], at most 0.1 µM. As for `CCc1cc(NC(=O)c2ccccc2F)ccc1-c1nnc(NCCCCN2CCCC2)o1` [Example 170, N-[3-ethyl-4-(5-{[4-(1-pyrrolidinyl)butyl]amino}-1,3,4-oxadiazol-2-yl)phenyl]-2-fluorobenzamide], the figure is at most 0.1 µM; as for `CCc1cc(NC(=O)c2ccccc2F)ccc1-c1nnc(NCCCCN(CC)CC)o1` [Example 171, N-[4-(5-{[4-(diethylamino)butyl]amino}-1,3,4-oxadiazol-2-yl)-3-ethylphenyl]-2-fluorobenzamide], at most 0.1 µM; as for `CCc1cc(NC(=O)c2ccccc2F)ccc1-c1nnc(NCCCCN2CCOCC2)o1` [Example 172, N-[3-ethyl-4-(5-{[4-(4-morpholinyl)butyl]amino}-1,3,4-oxadiazol-2-yl)phenyl]-2-fluorobenzamide], at most 0.1 µM. Regarding `CN1CCCN(CCCNc2nnc(-c3ccc(NC(=O)c4ccccc4F)cc3)o2)CC1` [Example 174, 2-fluoro-N-[4-(5-{[3-(4-methylhexahydro-1H-1,4-diazepin-1-yl)propyl]amino}-1,3,4-oxadiazol-2-yl)phenyl]benzamide], the EC50 was at most 1 µM.
